How the values were obtained:
[1] = target: T1, Mcl-1/Bim interaction, recombinant human Mcl-1 (171-327) (Homo sapiens, UniProt Q07820); experiment: Cell free Mcl-1: Bim Affinity Assay (Mcl-1 HTRF); format: binding
T1 construct: made in house
Procedure, shortened: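 Read-out is time-resolved FRET after overnight incubation, using a biotin-labelled peptide from human Bim (51-76) as the binding partner; IC50 was derived from competition curves.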

[2] = system: OPM-2 human multiple myeloma cell line; experiment: Cell Viability Assay (OPM-2 10 FBS); format: cell-based; conditions: OPM-2 cells, CellTiter-Glo
Procedure: Cell Viability Assay (OPM-2 10 FBS)
Cells were seeded into 384-well plates at 3000 cells/well density in complete growth medium containing 10% FBS, and incubated for 16 h with serially diluted test compounds in a 37° C. incubator with 5% CO2. Cell viability was tested using CellTiter-Glo® assay (Promega, Madison, WI) according to the manufacturer recommendations. Luminescence was determined using an EnVision® Multilabel plate reader 25 min after the addition of detection reagent. IC50 values were then calculated with Xlfit using a logistical 4-parameter fit model in GraphPad Prism (GraphPad Software, San Diego, CA) or in Genedata Screener® (Genedata, Basel, Switzerland).

[3] = cell free Mcl-1:Bim TR-FRET, recombinant human Mcl-1 (171-327)
[4] = Homo sapiens, OPM-2, 16 h, 16 h
[5] = TR-FRET, 0.1 nM Mcl-1 (171-327), 0.05 nM biotin-Bim (51-76)
[6] = Homo sapiens, OPM-2, 16 h, 16 h incubation

T1 sequence (Q07820 171-327): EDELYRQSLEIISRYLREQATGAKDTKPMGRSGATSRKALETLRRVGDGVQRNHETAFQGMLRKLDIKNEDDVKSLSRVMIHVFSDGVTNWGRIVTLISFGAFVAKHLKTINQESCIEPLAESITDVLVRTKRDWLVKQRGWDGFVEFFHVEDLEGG

Structure (SMILES) | IC50 [1, 3] | IC50 [2, 4] | IC50 [1, 5] | also measured
C[C@@H]1[C@@H](C)C/C=C/[C@H](OC[C@H]2CCCO2)[C@@H]2CC[C@H]2CN2C[C@@]3(CCCc4cc(Cl)ccc43)COc3ccc(cc32)C(=O)NS1(=O)=O [Example 510, (1S,3′R,6′R,7′S,8′E,11′S,12′R)-6-chloro-11′,12′-dimethyl-7′-((2R)-tetrahydro-2-furanylmethoxy)-3,4-dihydro-2H,15′H-spiro[naphthalene-1,22′-[20]oxa[13]thia[1,14]diazatetracyclo[14.7.2.0^3,6.0^19,24]pentacosa [8,16,18,24]tetraen]-15′-one 13′,13′-dioxide] | 1.25 nM | 587 nM |  | 
CCN1[C@H](C)CCC[C@H](O)[C@@H]2CC[C@H]2CN2C[C@@]3(CCCc4cc(Cl)ccc43)COc3ccc(cc32)C(=O)NS1(=O)=O [Example 84, (1S,3′R,6′R,7′S,11R)-6-chloro-12′-ethyl-7′-hydroxy-11′-methyl-3,4-dihydro-2H,15′H-spiro[naphthalene-1,22′-[20]oxa[13]thia[1,12,14]triazatetracyclo[14.7.2.0^3,6.0^19,24]pentacosa[16,18,24]trien]-15′-one 13′,13′-dioxide] |  | 5900 nM | 13.2 nM | 
C[C@@H]1C/C=C\[C@H](O)[C@@H]2CC[C@H]2CN2C[C@@]3(CCCc4cc(Cl)ccc43)COc3ccc(cc32)C(=O)NS(=O)(=O)N1C[C@H]1CCCO1 (single isomer, unassigned) [Example 56] |  | 1790 nM | 3.04 nM | 
COCCO[C@H]1/C=C\C[C@H](C)NS(=O)(=O)NC(=O)c2ccc3c(c2)N(C[C@@H]2CC[C@H]21)C[C@@]1(CCCc2cc(Cl)ccc21)CO3 (single isomer, unassigned) [Example 64] |  | 399 nM | 0.678 nM | 
CO[C@H]1C/C=C/[C@H](O)[C@@H]2CC[C@H]2CN2C[C@@]3(CCCc4cc(Cl)ccc43)COc3ccc(cc32)C(=O)NS(=O)(=O)[C@@H]1CC1CC1 (single isomer, unassigned) [Example 575] | 3.21 nM |  |  | IC50 ([2]; 16 h): 2070 nM
COC(=O)CO[C@H]1/C=C/CC[C@@H](C)S(=O)(=O)NC(=O)c2ccc3c(c2)N(C[C@@H]2CC[C@H]21)C[C@@]1(CCCc2cc(Cl)ccc21)CO3 [Example 408, methyl(((1S,3′R,6′R,7′S,8′E,12′R)-6-chloro-12′-methyl-13′,13′-dioxido-15′-oxo-3,4-dihydro-2H-spiro[naphthalene-1,22′-[20]oxa[13]thia[1,14]diazatetracyclo[14.7.2.0^3,6.0^19,24]pentacosa [8,16,18,24]tetraen]-7′-yl)oxy)acetate] |  | 98.8 nM | 0.312 nM | 
CCOC[C@H]1[C@@H](C)C/C=C/[C@H](O)[C@@H]2CC[C@H]2CN2C[C@@]3(CCCc4cc(Cl)ccc43)COc3ccc(cc32)C(=O)NS1(=O)=O (single isomer, unassigned) [Example 467] |  |  | 1.45 nM | IC50 ([2]; 16 h): 1510 nM
C[C@@H]1[C@@H](C)C/C=C/[C@H](OC[C@@H](C)O)[C@@H]2CC[C@H]2CN2C[C@@]3(CCCc4cc(Cl)ccc43)COc3ccc(cc32)C(=O)NS1(=O)=O (single isomer, unassigned) [Example 527] | 0.217 nM |  |  | IC50 ([2]; 16 h): 64.7 nM
COCCO[C@H]1/C=C/[C@H](C)[C@H](C)CS(=O)(=O)NC(=O)c2ccc3c(c2)N(C[C@@H]2CC[C@H]21)C[C@@]1(CCCc2cc(Cl)ccc21)CO3 (single isomer, unassigned) [Example 1065] |  |  | 0.402 nM | IC50 ([2]; 16 h incubation): 94.9 nM
CO[C@H]1/C=C/CC[C@@H](CCO)S(=O)(=O)NC(=O)c2ccc3c(c2)N(C[C@@H]2CC[C@H]21)C[C@@]1(CCCc2cc(Cl)ccc21)CO3 (single isomer, unassigned) [Example 617] | 0.221 nM |  |  | IC50 ([2]; 16 h): 11500 nM
CS(=O)(=O)CCN1CC/C=C/[C@H](O)[C@@H]2CC[C@H]2CN2C[C@@]3(CCCc4cc(Cl)ccc43)COc3ccc(cc32)C(=O)NS1(=O)=O [Example 34, (1S,3′R,6′R,7′S,8′E)-6-chloro-7′-hydroxy-12′-(2-(methylsulfonyl)ethyl)-3,4-dihydro-2H,15′H-spiro[naphthalene-1,22′-[20]oxa[13]thia[1,12,14]triazatetracyclo[14.7.2.0^3,6.0^19,24]pentacosa[8,16,18,24]tetraen]-15′-one 13′,13′-dioxide] |  | 3600 nM | 0.62 nM | 
O=C1NS(=O)(=O)[C@@H]2CCCC[C@H]2CCC[C@H](O)[C@@H]2CC[C@H]2CN2C[C@@]3(CCCc4cc(Cl)ccc43)COc3ccc1cc32 (single isomer, unassigned) [Example 333] |  |  | 0.96 nM | IC50 ([2]; 16 h): 3450 nM
CCC(OC1C=CCCC(C)S(=O)(=O)NC(=O)c2ccc3c(c2)N(CC2CCC21)CC1(CCCc2cc(Cl)ccc21)CO3)C(=O)N(C)C (single isomer, unassigned) [Example 419] |  | 310 nM | 0.333 nM | 
COCCOC1C=CCC(C)C(COC)S(=O)(=O)NC(=O)c2ccc3c(c2)N(CC2CCC21)CC1(CCCc2cc(Cl)ccc21)CO3 (single isomer, unassigned) [Example 463] |  | 122 nM | 0.416 nM | 

Second part, led by results:

IC50 [1, 3] | IC50 [2, 4] | IC50 [1, 5] | Structure (SMILES) | also measured
 |  | 0.844 nM | CCOC(=O)CO[C@H]1/C=C/CC[C@@H](CC)S(=O)(=O)NC(=O)c2ccc3c(c2)N(C[C@@H]2CC[C@H]21)C[C@@]1(CCCc2cc(Cl)ccc21)CO3 [Example 1003, ethyl (((1S,3′R,6′R,7′S,8′E,12′R)-6-chloro-12′-ethyl-13′,13′-dioxido-15′-oxo-3,4-dihydro-2H-spiro[naphthalene-1,22′-[20]oxa[13]thia[1,14]diazatetracyclo[14.7.2.0^3,6.0^19,24]pentacosa [8,16,18,24]tetraen]-7′-yl)oxy)acetate] | IC50 [2, 6]: 273 nM
0.187 nM | 878 nM |  | Cc1nnc(CCC2CCC=CC(O)C3CCC3CN3CC4(CCCc5cc(Cl)ccc54)COc4ccc(cc43)C(=O)NS2(=O)=O)o1 (single isomer, unassigned) [Example 632] | 
 |  | 0.945 nM | CC[C@@H]1C[C@H](C)/C=C/[C@H](OCCN2CCOCC2)[C@@H]2CC[C@H]2CN2C[C@@]3(CCCc4cc(Cl)ccc43)COc3ccc(cc32)C(=O)NS1(=O)=O (single isomer, unassigned) [Example 1027] | IC50 ([2]; 16 h incubation): 218 nM
13.5 nM | 3110 nM |  | CC[C@@H]1C/C=C/[C@H](OCC(=O)OC)[C@@H]2CC[C@H]2CN2C[C@@]3(CCCc4cc(Cl)ccc43)COc3ccc(cc32)C(=O)NS(=O)(=O)C1 [Example 741, methyl (((1S,3′R,6′R,7′S,8′E,11′R)-6-chloro-11′-ethyl-13′,13′-dioxido-15′-oxo-3,4-dihydro-2H-spiro[naphthalene-1,22′-[20]oxa[13]thia [1,14]diazatetracyclo[14.7.2.0^3,6.0^19,24]pentacosa[8,16,18,24]tetraen]-7′-yl)oxy)acetate] | 
 |  | 1.06 nM | CC[C@@H]1CC/C=C/[C@H](OCc2cc(C)nn2C)[C@@H]2CC[C@H]2CN2C[C@@]3(CCCc4cc(Cl)ccc43)COc3ccc(cc32)C(=O)NS1(=O)=O [Example 967, (1S,3′R,6′R,7′S,8′E,12′R)-6-chloro-7′-((1,3-dimethyl-1H-pyrazol-5-yl)methoxy)-12′-ethyl-3,4-dihydro-2H,15′H-spiro[naphthalene-1,22′-[20]oxa[13]thia[1,14]diazatetracyclo[14.7.2.0^3,6.0^19,24]pentacosa [8,16,18,24]tetraen]-15′-one 13′,13′-dioxide] | IC50 [2, 6]: 461 nM
0.647 nM | 104 nM |  | COC(=O)CN(CC(=O)OC)[C@H]1/C=C/CC[C@@H](C)S(=O)(=O)NC(=O)c2ccc3c(c2)N(C[C@@H]2CC[C@H]21)C[C@@]1(CCCc2cc(Cl)ccc21)CO3 [Example 600, dimethyl 2,2′-(((1S,3′R,6′R,7′S,8′E,12′R)-6-chloro-12′-methyl-13′,13′-dioxido-15′-oxo-3,4-dihydro-2H-spiro[naphthalene-1,22′-[20]oxa[13]thia[1,14]diazatetracyclo[14.7.2.0^3,6.0^19,24]pentacosa [8,16,18,24]tetraen]-7′-yl)imino)diacetate-trifluoroacetic Acid] | 
1.86 nM | 467 nM |  | C[C@@H]1[C@@H](C)C/C=C/[C@H](OCCO[C@H]2CCCCO2)[C@@H]2CC[C@H]2CN2C[C@@]3(CCCc4cc(Cl)ccc43)COc3ccc(cc32)C(=O)NS1(=O)=O (mixture of isomers) [Example 517] | 
0.141 nM | 24200 nM |  | C[C@H]1C/C=C/[C@H](OCC(=O)O)[C@@H]2CC[C@H]2CN2C[C@@]3(CCCc4cc(Cl)ccc43)COc3ccc(cc32)C(=O)NS(=O)(=O)[C@H]1C [Example 739, (((1S,3′R,6′R,7′S,8′E,11′S,12′S)-6-chloro-11′,12′-dimethyl-13′,13′-dioxido-15′-oxo-3,4-dihydro-2H-spiro[naphthalene-1,22′-[20]oxa[13]thia [1,14]diazatetracyclo[14.7.2.0^3,6.0^19,24]pentacosa[8,16,18,24]tetraen]-7′-yl)oxy)acetic Acid] | 
 |  | 0.493 nM | COC[C@H]1C/C=C/[C@H](O)[C@@H]2CC[C@H]2CN2C[C@@]3(CCCc4cc(Cl)ccc43)COc3ccc(cc32)C(=O)NS(=O)(=O)C1 [Example 1087, (1S,3′R,6′R,7′S,8′E,11′R)-6-chloro-7′-hydroxy-11′-(methoxymethyl)-3,4-dihydro-2H,15′H-spiro [naphthalene-1,22′-[20]oxa[13]thia[1,14]diazatetracyclo[14.7.2.0^3,6.0^19,24]pentacosa [8,16,18,24]tetraen]-15′-one 13′,13′-dioxide] | IC50 [2, 6]: 692 nM

Source: patent US12091425B2 (AMGEN INC., priority 2016, dated 2024)
